Experimental data published in patent US20260144252A1, “BROMINE- OR IODINE-PARA-SUBSTITUTED [(1,5-DIPHENYL-1H-1,2,4-TRIAZOL-3-YL)OXY]ACETIC ACID DERIVATIVES AND THEIR SALTS, AGENTS FOR PROTECTING USEFUL PLANTS OR CROP PLANTS COMPRISING THEM, METHODS FOR PRODUCING THEM AND THEIR USE AS SAFENERS” (Bayer Aktiengesellschaft, priority 2022, published 2026).

What was measured:
Assay type in all cases: in vivo
[1] = tested on: summer wheat (TRZAS, cv. Triso); test: Reduction of damage by mesosulfuron-methyl on summer wheat (greenhouse, post-emergence safener test); design: key: 0: no reduction in damage (appearance corresponding to the herbicide control); 1: slight reduction in damage; 2: distinct reduction in damage; 3: significant reduction in damage; 4: complete reduction in damage (appearance corresponding to the untreated control); conditions: mesosulfuron-methyl 40 g/ha, visual, 12-13 days after application
Experimental: (§1) The seeds of the crop plants to be treated were laid out in soil in plastic pots (diameter ˜4 cm), covered with soil and grown in a greenhouse under good conditions for germination and growth. The trial plants were treated at the early leaf stage (BBCH10-BBCH12). In the course of this, the inventive compounds of the general formula (I) formulated in the form of wettable powders (WP) were sprayed onto the above-ground parts of the plants as an aqueous suspension with a water application rate corresponding to 800 l/ha with addition of wetting agent (Mero, 0.2%) in the specified dose. This was followed by the application of the herbicide. For this purpose, mesosulfuron-methyl, formulated in the form of water-dispersible granules (WG), was sprayed onto the above-ground parts of the plants in the form of an aqueous dispersion with a water application rate corresponding to 800 l/ha with addition of wetting agent (Biopower, 1 l/ha) in a dose of 40 g/ha. The dose of the herbicide was chosen here such that it causes average, visually clearly apparent damage (50-60%) compared to untreated crop plants at the evaluation time on a control group of crop plants without safener treatment that were included in the same trial. After application, the plants were cultivated under good growth conditions in a greenhouse. 12-13 days after application, the efficacy of the test compounds was assessed visually. For this purpose, the appearance of the plants treated with the test compound and herbicide was compared to the corresponding herbicide controls (without safener; with clearly visible damage) and the untreated controls (without damage). The damage-reducing effect of the test compounds was expressed here separately for 2 repeats in graded efficacy codes according to the following scheme: • 0: no reduction in damage (appearance corresponding to the herbicide control) • 1: slight reduction in damage • 2: distinct reduction in damage • 3: significant reduction in damage • 4: complete reduction in damage (appearance corresponding to the untreated control)

[2] = tested on: summer barley (HORVS, cv. Quench); test: Reduction of damage by mesosulfuron-methyl on summer barley (greenhouse, post-emergence safener test); design: key: 0: no reduction in damage (appearance corresponding to the herbicide control); 1: slight reduction in damage; 2: distinct reduction in damage; 3: significant reduction in damage; 4: complete reduction in damage (appearance corresponding to the untreated control); conditions: safener 100 g/ha, mesosulfuron-methyl 40 g/ha, visual, 12-13 days after application
Experimental: as §1

[3] = tested on: summer barley (HORVS; cv. Quench); test: Comparative herbicide/safener combination test, damage by mesosulfuron-methyl + iodosulfuron-methyl-sodium; conditions: safener 20 g a.i./ha, damage without safener 50%
Experimental: (§2) The seeds of the crop plants to be treated were laid out in soil in wood fiber pots (diameter ˜7 cm), covered with soil and grown in a greenhouse under good conditions for germination and growth. The trial plants were treated at the early leaf stage (BBCH11-12). For this purpose, the herbicides and safeners used were formulated as wettable powders (WP), mixed in accordance with the dose specified in each case, and sprayed onto the above-ground parts of the plants as an aqueous suspension at a water application rate corresponding to 300 l/ha with addition of wetting agent (Biopower, 0.2%). The herbicidal effects were created using a mixture of mesosulfuron-methyl (40 g a.i./ha) and iodosulfuron-methyl-sodium (8 g a.i./ha). The total herbicide dose was chosen here such that it causes average, visually clearly apparent damage (min. 20%, max. 60%) compared to untreated crop plants at the evaluation time on a control group of crop plants without safener treatment that were included in the same trial. After application, the plants were cultivated under good growth conditions in a greenhouse. 20 days after application, the herbicide damage was assessed visually. The damage was assessed visually on a scale of 0-100% by comparison with untreated control plants, and averaged over 2 repeats per treatment.

[4] = tested on: winter barley (HORVW; cv. Zzoom); test: as above; conditions: safener 20 g a.i./ha, damage without safener 55%
Experimental: as §2

[5] = tested on: durum wheat (TRZDU; cv. Joyau); test: as above; conditions: safener 20 g a.i./ha, damage without safener 20%
Experimental: as §2

[6] = mesosulfuron-methyl 40 + iodosulfuron-methyl-sodium 8 g a.i./ha, 20 days after application

CCOC(=O)COc1nc(-c2ccc(F)cc2F)n(-c2ccc(Br)cc2F)n1 [I.41-1]
Efficacy of the safener [Efficacy Code] ([1]; safener 100 g/ha): 2
Efficacy of the safener [Efficacy Code] ([1]; safener 500 g/ha): 2
Efficacy of the safener [Efficacy Code] [2]: 3

COC(=O)CCOC(=O)COc1nc(-c2ccc(F)cc2F)n(-c2ccc(Br)cc2F)n1 [I.61-1]
Efficacy of the safener [Efficacy Code] [2]: 2

O=C(COc1nc(-c2ccc(F)cc2F)n(-c2ccc(Br)cc2F)n1)OCC1CCOC1 (centres unmarked) [I.63-1]
Efficacy of the safener [Efficacy Code] [2]: 2

COCCOC(=O)COc1nc(-c2ccc(F)cc2F)n(-c2ccc(Br)cc2F)n1 [I.67-1]
Efficacy of the safener [Efficacy Code] ([1]; safener 100 g/ha): 2
Efficacy of the safener [Efficacy Code] ([1]; safener 500 g/ha): 3
Reduction in damage by safener (difference) [3]: 50
Reduction in damage by safener (in %) [3]: 100%
Damage to crop plant by herbicide treatment WITH SAFENER [3, 6]: 0%
Reduction in damage by safener (difference) [4]: 45
Reduction in damage by safener (in %) [4]: 82%
Damage to crop plant by herbicide treatment WITH SAFENER [4, 6]: 10%
Reduction in damage by safener (difference) [5]: 20
Reduction in damage by safener (in %) [5]: 100%
Damage to crop plant by herbicide treatment WITH SAFENER [5, 6]: 0%
Efficacy of the safener [Efficacy Code] [2]: 3
